pIC50: −log10 of the molar value.
Columns and labels:
GGTase = GGTase (Homo sapiens, UniProt P53609); conditions: cited from earlier work
Ftase = Ftase (Homo sapiens, UniProt P49356); conditions: cited from earlier work
[1] = tested on: CTGF gene expression in cultured human trabecular meshwork cells; experiment: Basal and TGFβ2-induced CTGF gene expression by QRT-PCR in TM cells; assay type: cell-based; conditions: for measured CTGF levels (CTGF/18S cDNA) compared to TGFβ2-treated cells: TM cells treated with TGFβ2 and inhibitor, versus TGFβ2 alone, FIGS. 1 and 2
Excerpt: (§1) Total RNA was isolated from TM cells using Qiagen RNeasy 96 system according to the manufacturer's instructions (Qiagen).
Differential expression of CTGF and PAI-1 were verified by quantitative real-time RT-PCR (QRT-PCR) using an ABI Prism® 7700 Sequence Detection System (Applied Biosystems) essentially as previously described (Shepard et al., IOVS, 2001, Vol. 42:3173). Primers for CTGF amplification were designed using Primer Express software (Applied Biosystems) to anneal to adjacent exons of Genbank accession #NM_001901.1 ([…] (SEQ ID NO: 1), nts 1667-1689 and […] (SEQ ID NO: 2), nts 1723-1742, with probe sequence 6FAM-[…]-TAMRA (SEQ ID NO: 3)) and generate a 76-bp amplicon. Primers for PAI-1 amplification were purchased from ABI (Hs00167155 ml) and correspond to Genbank accession #NM_000602.1. Amplification of CTGF or PAI-1 was normalized to 18S ribosomal RNA expression using primers designed to the 18S rRNA gene (GenBank accession #X03205 […] (SEQ ID NO: 4), nts 1680-1700 and […] (SEQ ID NO: 5), nts 1730-1749, with probe sequence 6FAM-[…]-MGBNFQ (SEQ ID NO: 6)) which generates a 69-bp amplicon. CTGF or PAI-1 QRT-PCR was performed in multiplex with 18S primer/probe sets in a 50 ul final volume consisting of 40 nM 18S or 900 nM CTGF or PAI-1 primers; 100 nM 18S probe or 100 nM CTGF or 250 nM PAI-1 probe; 5 ul RNA; 1× Multiscribe and RNase Inhibitor Mix (ABI); and 1× TaqMan® Universal Mix (ABI). Thermal cycling conditions consisted of 48° C., 30 min, 95° C. 10 min followed by 40 cycles at 95° C., 15 sec, 60° C., 1 min. […] Quantification of relative RNA concentrations was done using the delta delta Ct method as described in PE Biosystems User Bulletin #2. Levels of amplified products were expressed as mean±SEM of quadruplicate QRT-PCR assays. […]
(§2) In this example, the effectiveness of GGTase and FTase inhibitors on CTGF gene expression in cultured human trabecular meshwork cells was studied. In this experiment, the CTGF/18S cDNA levels were measured and compared by QRT-PCR according to the protocol of Example 1.

[2] = tested on: lactate dehydrogenase (LDH) release into culture media; experiment: CytoTox-ONE Homogenous Membrane Integrity Assay (LDH release); assay type: cell-based; conditions: conclusion from LDH release; FIG. 4
[3] = tested on: PAI-1 gene expression in TM cell lines; experiment: TGFβ2-induced PAI-1 gene expression by QRT-PCR in TM cells; assay type: cell-based, human; conditions: TM cell lines treated with TGFβ2 and inhibitor, versus TGFβ2 alone; FIG. 3
Excerpt: as §1
Differential expression of CTGF and PAI-1 were verified by quantitative real-time RT-PCR (QRT-PCR) using an ABI Prism® 7700 Sequence Detection System (Applied Biosystems) essentially as previously described (Shepard et al., IOVS, 2001, Vol. 42:3173). Primers for CTGF amplification were designed using Primer Express software (Applied Biosystems) to anneal to adjacent exons of Genbank accession #NM_001901.1 ([…] (SEQ ID NO: 1), nts 1667-1689 and […] (SEQ ID NO: 2), nts 1723-1742, with probe sequence 6FAM-[…]-TAMRA (SEQ ID NO: 3)) and generate a 76-bp amplicon. Primers for PAI-1 amplification were purchased from ABI (Hs00167155 ml) and correspond to Genbank accession #NM_000602.1. […] Quantification of relative RNA concentrations was done using the delta delta Ct method as described in PE Biosystems User Bulletin #2. Levels of amplified products were expressed as mean±SEM of quadruplicate QRT-PCR assays. […]
as §2

| SMILES | pIC50 (GGTase) | pIC50 (Ftase) | measured CTGF levels (CTGF/18S cDNA) compared to TGFβ2-treated cells [1] | cytotoxicity [2] | measured PAI-1 compared to TGFβ2-treated cells [3] | measured CTGF levels (CTGF/18S cDNA) compared to vehicle alone ([1]; TM cell cultures treated with TGFβ2 and inhibitor, versus vehicle alone, FIG. 1) |
| --- | --- | --- | --- | --- | --- | --- |
| COC(=O)[C@H](CC(C)C)NC(=O)c1ccc(NC[C@@H](N)CS)cc1-c1cccc2ccccc12 [GGTI-298] | 5.52 | – | – | – | – | – |
| COC(=O)[C@H](CCSC)NC(=O)c1ccc(NC[C@@H](N)CS)cc1-c1ccccc1 [FTI-277] | – | 7.00 | produces a drop in measured CTGF levels | relatively low cytotoxicity | able to produce drops in measured PAI-1 | – |
| CSCC[C@H](NC(=O)[C@H](Cc1ccccc1)NC[C@@H](NC[C@@H](N)CS)C(C)C)C(=O)O [Ftase Inhibitor I] | 6.10 | 7.68 | – | – | – | – |
| CSCC[C@H](NC(=O)c1ccc(NC(=O)[C@@H](N)CS)cc1)C(=O)O [Ftase Inhibitor II] | – | 7.30 | – | – | – | – |
| COC(=O)[C@H](CC(C)C)NC(=O)c1ccc(NCc2cnc[nH]2)cc1-c1cccc2ccccc12 [GGTI-2147] | 6.30 | 4.52 | – | – | – | – |
| COC(=O)[C@H](CC(C)C)NC(=O)c1ccc(NC[C@@H](N)CS)cc1-c1ccccc1 [GGTI-286] | 5.70 | – | – | – | – | – |
| CSCC[C@H](NC(=O)c1ccc(NC[C@@H](N)CS)cc1-c1ccccc1)C(=O)O [FTI-276] | 7.30 | – | – | – | – | – |
| CC(C)C[C@H](NC(=O)c1ccc(NCc2cnc[nH]2)cc1-c1cccc2ccccc12)C(=O)O [GGTI-2133] | 7.42 | 5.27 | dramatically reduced CTGF levels | relatively low cytotoxicity | able to produce drops in measured PAI-1 | lower than with vehicle alone |
| CC(C)C[C@H](NC(=O)c1ccc(NC[C@@H](N)CS)cc1-c1cccc2ccccc12)C(=O)O [GGTI-297] | 7.30 | 6.70 | – | – | – | – |

From patent publication US20120108632A1, “[…] INHIBITORS FOR OCULAR HYPERTENSION CONTROL AND THE TREATMENT OF GLAUCOMA” (ALCON RESEARCH, LTD., priority 2006, published 2012)
